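Results reflect a 48-hour exposure of cells in 96-well plates to compound at five concentrations. At the GI50, growth is halved. At the TGI there is no net growth.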

By TGI is commonly meant the concentration giving total growth inhibition. Read a low TGI as more potent growth arrest. The GI50 is the concentration at which growth is held to half of that of the control.

Holding throughout (experiment): DTP human tumour cell line panel, 48 h
Assay [1] relates to A498 renal.
Assay [2] deals with CAKI-1 renal.
In assay [3] the test system is COLO 205 colon.
Assay [4] concerns HCT-116 colon.
For assay [5], the system named is HL-60(TB) leukemia.
Assay [6] relates to HOP-92 NSCLC.
Assay [7] concerns NCI-H226 lung.
Assay [8] has as its system OVCAR-5 ovarian.
In assay [9] the test system is SF-295 CNS.
The subject of assay [10] is SK-MEL-28 melanoma.

`COc1ccc(OC)c(NC(=O)C(=O)C(C(C)=O)c2nc3ccc(Cl)cc3[nH]c2=O)c1` (stereo not given): the TGI in [1], in assay [2], in assay [3], in assay [4], in [5] and in [6] was > 50 µM each time. For the same molecule, the TGI in assay [7], in [8], in [9] and in assay [10] was > 50 µM in each case.
For `Cc1cc(N(CCOS(C)(=O)=O)CCOS(C)(=O)=O)ccc1C=Nc1ccc(-c2nc(Cc3ccccc3)sc2C)cc1`, the TGI is 6.39 µM in [1]; 9.2 µM in assay [2]; 4.76 µM in assay [3]; 35 µM in assay [4]; 28.9 µM in [5]; 25.4 µM in [6]. Also, the TGI in [7] is 22.6 µM; in assay [8] it was 37.8 µM; in assay [9] it was 32.4 µM; in [10], 35.3 µM.
For the molecule `CCNCCNc1cc(-c2ccc(C(=O)OC)cc2)c(C#N)c2nc3ccccc3n12`, the GI50 in [1] is 1.99 µM; in assay [2] it was 2.92 µM; in [3], 0.623 µM; in assay [4], 0.758 µM; in assay [5] it was 1.11 µM; in assay [6] it was 2.23 µM. The GI50 is 2.02 µM in assay [7], 3.08 µM in assay [8], 1.57 µM in assay [9] and 1.72 µM in [10]. In addition, the concentration for total growth inhibition (TGI) in assay [1] is 5.13 µM; in [2], > 100 µM; in assay [3] it was 2.24 µM; in [4] it was 2.09 µM; in assay [5], 2.93 µM; in [6] it was 4.36 µM. Also, the TGI in assay [7] was 8.39 µM; in assay [8] it was > 100 µM; in [9], 3.12 µM; in assay [10], 3.45 µM.
Turning to `CC1=C(C(=O)Nc2ccc3[nH]ncc3c2)C(c2ccc3ccccc3c2)CC(=O)N1` (stereo not given), the GI50 is 4.22 µM in assay [1]; > 16.9 µM in assay [2]; 9.96 µM in assay [3]; 14.1 µM in assay [4]; > 25 µM in assay [5]; 0.0408 µM in [6]. For the same molecule, the GI50 in [7] is 1.04 µM; in assay [8], 20.5 µM; in [9], 16.5 µM; in assay [10] it was > 22.2 µM. Moreover, the TGI in assay [1] was 22 µM; in assay [2], > 25 µM; in assay [3], > 21.2 µM; in assay [4], > 25 µM; in [5] it was > 25 µM; in assay [6], 10.9 µM. Moreover, the total growth inhibition concentration (TGI) in assay [7] is > 18.2 µM; in [8] it was > 25 µM; in [9], > 25 µM; in assay [10] it was > 25 µM.
As for `CN1CCN(Cc2ccc(NC(=O)c3cncc(C#Cc4cnc(N)c5ccc(C#N)cc45)c3)cc2C(F)(F)F)CC1`, the GI50 in assay [1] is 0.0208 µM; in assay [2], 0.0175 µM; in assay [3], 0.0178 µM; in assay [4], 0.0254 µM; in assay [5], 0.0483 µM; in assay [6] it was 0.0244 µM. The GI50 in assay [7] is 0.0698 µM; in assay [8], 0.211 µM; in [9] it was 0.214 µM; in assay [10], 0.0273 µM. Also, the total growth inhibition concentration (TGI) was 0.478 µM in assay [1]; 0.206 µM in assay [2]; 0.722 µM in assay [3]; 0.672 µM in assay [4]; 1.05 µM in assay [5]; 0.344 µM in assay [6]. The TGI is 0.864 µM in assay [7], 0.986 µM in assay [8], 9.95 µM in assay [9] and 0.519 µM in assay [10].
Take `N#Cc1ccc(C#Cc2ccccc2C#CCCCCO)cc1`: the GI50 was 13.8 µM in assay [1]; 21 µM in assay [2]; 18.1 µM in assay [3]; 12.7 µM in assay [4]; 23.7 µM in [5]; 17.7 µM in assay [6]. The GI50 is 20.9 µM in assay [7], 15.1 µM in assay [8], 21.3 µM in [9] and 25.6 µM in [10]. The concentration for total growth inhibition (TGI) was found to be 27.7 µM in assay [1]; 39.8 µM in assay [2]; 34.3 µM in [3]; 25.3 µM in assay [4]; 45.6 µM in assay [5]; 34.6 µM in [6]. The TGI in assay [7] was 38.6 µM; in assay [8], 28.4 µM; in assay [9], 41 µM; in assay [10], 53.7 µM.
For the molecule `CCOc1ccc2c(c1)[n+]([O-])c(S(=O)(=O)c1ccc(C)cc1)c(N)[n+]2[O-]`, the TGI in assay [1], in assay [2], in assay [3], in assay [4], in assay [5] and in [6] was > 100 µM each time. In addition, the TGI in assay [7], in assay [8], in assay [9] and in assay [10] was > 100 µM each time.
On to `C[C@]12CC[C@H](O)CC1=CC[C@@H]1[C@@H]2CC[C@]2(C)C(c3cccnc3)=CC[C@@H]12`, for which the GI50 in assay [1] is > 27.8 µM; in [2], > 100 µM; in [3], > 100 µM; in [4] it was 19.2 µM; in [5], > 100 µM; in assay [6], 8.7 µM. For the same molecule, the GI50 in assay [7] is > 68 µM; in assay [8], > 100 µM; in assay [9] it was 6.07 µM; in [10], 61.3 µM. Moreover, the TGI in assay [1] is > 100 µM; in assay [2], > 100 µM; in assay [3], > 100 µM; in assay [4] it was > 100 µM; in assay [5], > 100 µM; in assay [6], > 55.9 µM. The TGI in assay [7], in assay [8], in [9] and in [10] was > 100 µM each time.

The values are drawn from PubChem BioAssay (NCI).
